pIC50: −log10 of the molar value.
What was measured:
Shionogi tumor cells = experiment: MTT assay, taxol chemosensitivity of Shionogi cells; type: cell-based; details: Mus musculus, without ISIS 16009
Experimental: The in vitro growth inhibitory effects of antisense oligonucleotides and/or taxol on Shionogi tumor cells were asessed by the MTT assay (Miyake et al., 1998). Briefly, 1×10^4 cells were seeded in each well of 96-well microtiter plates and allowed to attach overnight. Cells were then treated once daily with 500 nM oligonucleotide for 2 days. Following oligonucleotide treatment, cells were treated with various concentrations of taxol. After a 48 hour incubation, 20 μl of 5 mg/ml MTT (Sigma) in PBS was added to each well, followed by incubation for 4 hr at 37° C. The formazan crystals were dissolved in DMSO. The optical density was determined with a microculture plate reader at 540 nm. Absorbance values were normalized to the values obtained for the vehicle-treated cells to determine the percent of survival. Each assay was performed in triplicate.

[1] = WST-1 viability assay of MO59K cells with taxol; type: cell-based; details: human
Experimental: Cells were seeded at a density of 0.25×10^6 in 6-well plates 24 hours before oligonucleotide treatment. Cultures were then incubated for 4 hours at 37° C. with 200 nM oligonucleotide in the presence of 10 μl Lipofectin as an uptake enhancer, according to the manufacturer's protocol. After incubation, the oligonucleotide-lipofectin mixture was replaced with complete medium and cells were cultured as described above.
Viability assays were performed in 96-well plates (Costar) on cells cultured as described above. Cells were incubated with taxol in 10 μl medium to a final concentration of 2.5 nM. Controls contained 10 μl medium with the corresponding amount of saline. Viability was determined with the […] WST-1 assay (Boehringer mannheim, Indianapolis, Ind.). and measured using a Dynatech MR-7000 ELISA reader acording to the manufacturer's instructions.

pIC50 (Shionogi tumor cells): 7.00
Compound: CC(=O)O[C@H]1C(=O)[C@@]2(C)[C@H]([C@H](OC(=O)c3ccccc3)[C@]3(O)C[C@H](OC(=O)[C@H](O)[C@@H](NC(=O)c4ccccc4)c4ccccc4)C(C)=C1C3(C)C)[C@]1(OC(C)=O)CO[C@@H]1C[C@@H]2O [taxol]
viability at 2 days, 2.5 nM ([1]; taxol 2.5 nM added at day 2, read-out: cell viability after 4 days): 63% | cytotoxicity at 24 h, 2.5 nM ([1]; taxol 2.5 nM, after 24 hours, read-out: reduction of viability): 25% | cytotoxicity at 48 h, 2.5 nM ([1]; taxol 2.5 nM, after 48 hours, read-out: reduction of viability): 37%

Source: patent publication US7148204B2, “Antisense modulation of bcl-x expression” (Isis Pharmaceuticala, Inc., priority 1998, dated 2006)
